# Measurements as given in patent publication US6849272B1, “Endosomolytic agents and cell delivery systems” (Massachusetts Institute of Technology, priority 1999, dated 2005).
# Legend:
# cells [1] = details: in vitro; cited from earlier work
# cells [2] = format: cell-based
# Description: Another synthetic polymer that has been recently evaluated for its ability to mediate gene transfer is polyethyleneimine (PEI) which contains primary, secondary, and tertiary amines (Abdallah, B.; Hassan, A.; Benoist; Goula, D.; Behr, J. P.; Demeneix, B. A. Human Gene Therapy 1996, 7, 1947; Boussif, O.; Lezoualc'h, F.; Zanta, M. A.; Mergny, M. D., Scherman, D.; Demeneix, B.; Behr, J. P. Proc. Natl. Acad. Sci. USA 1995, 92, 7297). The advantage of PEI over polylysine as a mediator for gene transfer is that it contains a built-in mechanism for endosome escape. The overall protonation of PEI at pH=7 is approximately 20% whereas the overall protonation at pH=5 is approximately 45% (Suh, J.; Paik, H. J.; Hwang, B. K. Bioorg. Chem. 1994, 22, 318). […] In fact, PEI is capable of mediating gene transfer equal to the best lipid systems.
Compound,concentration required to enhance transfection (cells [1]),toxicity to cells in vitro (cells [2])
OCC(O)CO [glycerol],1-1.5 M,–
polyethyleneimine [PEI],–,toxic to cells in vitro
